Laboratory results as given in article PMC8138313, “Identification, Selection and Immune Assessment of Liver Stage CD8 T Cell Epitopes From Plasmodium falciparum” (Frontiers in Immunology, 2021).
Where a SMILES comes first, the peptide text is derived from it.

Legend:
Assay in all cases: HLA class I binding assay (cell-free competition, fluorescence polarization)
[1] = molecular target: HLA B*4402 (Homo sapiens, UniProt P01889, A223V/A65T/A93T/A95T/D201E/D98Y/E176V/E187L/E204Q/E69K/G107R/H137Y/K202T/L105A/L119I/N104T/N87E/Q56L/Q94N/R106L/R155S/R180D/S101N/S121R/S35A/S48T/T118I/V36M/W191S/Y140D/Y91S)
[2] = molecular target: HLA A*0301 (Homo sapiens, UniProt P04439)
[3] = molecular target: HLA A*0101 (Homo sapiens, UniProt P04439, A114D/A174V/A182V/D101N/D185E/E176A/E190D/L180R/Q94H/R68K/S129P/T187R/V100A/V91M/W191G)
[4] = molecular target: HLA B*0702 (Homo sapiens, UniProt P01889)
[5] = molecular target: HLA A*0201 (Homo sapiens, UniProt P04439, D140Y/D185E/D98H/E176V/E277Q/G131W/G231S/I119V/I121R/I166T/I218V/L300P/L318F/N151K/N90K/P208A/P217A/Q86G/Q94H/R138H/R169H/T345S)
[6] = molecular target: HLA A*2402 (Homo sapiens, UniProt P04439, D101N/D140Y/D185E/E176V/E190D/F33S/G103R/G107R/I119L/I121M/I306V/K335N/L105A/L180Q/L300P/N151K/N90K/Q86E/Q94H/R106L/R138H/R89G/T104I/T345S/V100E/W191G/Y123F)

Row | SMILES | IC50 [4] | also measured
1 | C[C@H](N)C(=O)N[C@@H](CO)C(=O)N[C@@H](Cc1ccccc1)C(=O)N[C@@H](CO)C(=O)N[C@@H](C)C(=O)N[C@@H](CO)C(=O)N[C@H](C(=O)NCC(=O)N[C@@H](Cc1ccc(O)cc1)C(=O)O)[C@@H](C)O (H-ASFSASTGY-OH) | – | IC50 [1]: 31.7 µM; IC50 [2]: 2.37 µM; IC50 [3]: > 1000 µM
2 | CC(C)[C@H](NC(=O)[C@H](CCC(=O)O)NC(=O)[C@H](Cc1ccccc1)NC(=O)[C@@H](NC(=O)[C@H](CC(=O)O)NC(=O)[C@@H](N)CC(=O)O)[C@@H](C)O)C(=O)N[C@@H](Cc1ccc(O)cc1)C(=O)N[C@@H](CO)C(=O)N[C@@H](CCC(=O)O)C(=O)N[C@@H](Cc1ccc(O)cc1)C(=O)O (H-DDTFEVYSEY-OH; N-terminus assumed) | – | IC50 [1]: > 1000 µM; IC50 [3]: > 1000 µM
3 | CC[C@H](C)[C@H](NC(=O)[C@H](CC(N)=O)NC(=O)[C@H](CCCCN)NC(=O)[C@H](CCCCN)NC(=O)[C@H](CCCCN)NC(=O)[C@H](CC(C)C)NC(=O)[C@@H](N)Cc1ccccc1)C(=O)N[C@H](C(=O)N[C@@H](CC(C)C)C(=O)O)[C@@H](C)O (H-FLKKKNITL-OH) | 25.4 µM | IC50 [5]: 5.34 µM
4 | CC(C)C[C@H](NC(=O)[C@H](CO)NC(=O)[C@@H]1CCCN1C(=O)[C@H](CCCCN)NC(=O)[C@H](CC(N)=O)NC(=O)[C@H](CC(C)C)NC(=O)[C@H](CC(C)C)NC(=O)[C@H](CCCCN)NC(=O)[C@@H]1CCCN1C(=O)[C@@H](N)Cc1ccccc1)C(=O)O (H-FPKLLNKPSL-OH) | 73.1 µM | –
5 | CC(C)C[C@H](NC(=O)[C@H](Cc1ccccc1)NC(=O)[C@@H]1CCCN1C(=O)[C@@H](N)Cc1c[nH]cn1)C(=O)N[C@@H](CCCCN)C(=O)N[C@@H](CO)C(=O)NCC(=O)N[C@@H](Cc1ccccc1)C(=O)N[C@H](C(=O)N[C@@H](Cc1ccccc1)C(=O)O)[C@@H](C)O (H-HPFLKSGFTF-OH) | 0.226 µM | IC50 [6]: 10.5 µM; IC50 [1]: > 1000 µM
6 | N=C(N)NCCC[C@H](NC(=O)[C@H](Cc1ccc(O)cc1)NC(=O)[C@H](CCCCN)NC(=O)[C@@H]1CCCN1C(=O)[C@@H](N)Cc1c[nH]cn1)C(=O)N[C@@H](CC(N)=O)C(=O)N[C@@H](Cc1ccccc1)C(=O)N[C@@H](CCCCN)C(=O)N[C@@H](Cc1ccccc1)C(=O)O (H-HPKYRNFKF-OH) | 0.336 µM | –
7 | CC[C@H](C)[C@H](NC(=O)[C@H](CC(N)=O)NC(=O)[C@@H](NC(=O)[C@@H]1CCCN1C(=O)[C@H](CCSC)NC(=O)[C@@H]1CCCN1C(=O)[C@@H](N)Cc1c[nH]cn1)[C@@H](C)CC)C(=O)N[C@@H](CCCCN)C(=O)N[C@@H](CC(C)C)C(=O)O (H-HPMPINIKL-OH) | 0.168 µM | –
8 | CC[C@H](C)[C@H](N)C(=O)N1CCC[C@H]1C(=O)N1CCC[C@H]1C(=O)N[C@@H](CCC(N)=O)C(=O)N[C@H](C(=O)N[C@@H](Cc1ccccc1)C(=O)N[C@@H](CC(=O)O)C(=O)N[C@@H](Cc1ccc(O)cc1)C(=O)N1CCC[C@H]1C(=O)N[C@H](C(=O)O)[C@@H](C)CC)C(C)C (H-IPPQVFDYPI-OH) | 245 µM | –
9 | CC[C@H](C)[C@H](NC(=O)[C@H](CO)NC(=O)[C@H](CCCCN)NC(=O)[C@H](CO)NC(=O)[C@H](CC(N)=O)NC(=O)[C@@H](NC(=O)[C@H](CO)NC(=O)[C@H](Cc1ccc(O)cc1)NC(=O)[C@H](CC(C)C)NC(=O)[C@@H](N)CCCCN)[C@@H](C)CC)C(=O)O (H-KLYSINSKSI-OH) | 225 µM | IC50 [5]: 57.7 µM
10 | N=C(N)NCCC[C@H](NC(=O)[C@H](Cc1c[nH]c2ccccc12)NC(=O)[C@H](Cc1ccccc1)NC(=O)[C@H](CC(N)=O)NC(=O)[C@@H]1CCCN1C(=O)[C@@H](N)CCCCN)C(=O)N[C@@H](Cc1ccccc1)C(=O)N[C@@H](CCC(N)=O)C(=O)N[C@@H](CC(=O)O)C(=O)N[C@@H](Cc1ccc(O)cc1)C(=O)O (H-KPNFWRFQDY-OH; N-terminus assumed) | > 1000 µM | –
11 | CC(C)C[C@H](NC(=O)[C@H](CC(=O)O)NC(=O)[C@H](CCCNC(=N)N)NC(=O)[C@H](CCCNC(=N)N)NC(=O)[C@H](CC(=O)O)NC(=O)[C@H](CO)NC(=O)[C@H](CC(N)=O)NC(=O)[C@H](CC(C)C)NC(=O)[C@@H](N)CC(C)C)C(=O)O (H-LLNSDRRDL-OH) | 0.2 µM | –
12 | CC[C@H](C)[C@H](NC(=O)[C@@H]1CCCN1C(=O)[C@@H](N)CC(C)C)C(=O)N[C@@H](CCC(=O)O)C(=O)N1CCC[C@H]1C(=O)N[C@@H](CCCCN)C(=O)N[C@@H](CCCCN)C(=O)N[C@@H](CC(C)C)C(=O)N[C@@H](C)C(=O)O (H-LPIEPKKLA-OH) | 561 µM | –
13 | CC(C)C[C@H](NC(=O)[C@H](CCC(N)=O)NC(=O)[C@@H](NC(=O)[C@@H]1CCCN1C(=O)[C@@H](N)CC(N)=O)C(C)C)C(=O)N[C@@H](CCCCN)C(=O)N[C@@H](CO)C(=O)N[C@@H](CCCCN)C(=O)N[C@@H](Cc1ccccc1)C(=O)O (H-NPVQLKSKF-OH) | 59.6 µM | –
14 | CC(C)C[C@H](NC(=O)[C@H](CC(N)=O)NC(=O)[C@H](CC(C)C)NC(=O)[C@@H](N)CCCNC(=N)N)C(=O)N[C@@H](Cc1ccccc1)C(=O)N[C@@H](CS)C(=O)N[C@@H](Cc1ccccc1)C(=O)N[C@@H](CO)C(=O)N[C@@H](Cc1ccccc1)C(=O)O (H-RLNLFCFSF-OH) | – | IC50 [6]: 11 µM; IC50 [1]: > 1000 µM
15 | CC[C@H](C)[C@H](NC(=O)[C@H](CC(N)=O)NC(=O)[C@@H](N)CCCNC(=N)N)C(=O)N[C@H](C(=O)N[C@@H](CO)C(=O)N[C@@H](CCCCN)C(=O)N[C@@H](Cc1c[nH]cn1)C(=O)N[C@H](C(=O)N[C@@H](CO)C(=O)N[C@H](C(=O)O)C(C)C)[C@@H](C)O)[C@@H](C)CC (H-RNIISKHTSV-OH) | 505 µM | –
16 | CC[C@H](C)[C@H](NC(=O)[C@@H](N)CO)C(=O)N[C@@H](C)C(=O)N[C@@H](CO)C(=O)N[C@@H](CCCCN)C(=O)N[C@@H](CC(N)=O)C(=O)N[C@@H](CC(C)C)C(=O)N[C@@H](CCSC)C(=O)N[C@@H](Cc1c[nH]c2ccccc12)C(=O)N[C@H](C(=O)O)C(C)C (H-SIASKNLMWV-OH) | > 1000 µM | IC50 [2]: > 1000 µM; IC50 [5]: 284 µM
17 | CSCC[C@H](NC(=O)[C@@H](NC(=O)[C@H](CC(=O)O)NC(=O)[C@H](Cc1c[nH]cn1)NC(=O)[C@@H]1CCCN1C(=O)[C@@H](N)CO)[C@@H](C)O)C(=O)N[C@@H](CCC(N)=O)C(=O)N[C@@H](CCCCN)C(=O)N[C@@H](CC(=O)O)C(=O)N[C@@H](CC(=O)O)C(=O)O (H-SPHDTMQKDD-OH; N-terminus assumed) | > 1000 µM | –
18 | CSCC[C@H](NC(=O)[C@H](CCC(=O)O)NC(=O)[C@@H](N)[C@@H](C)O)C(=O)N[C@@H](Cc1ccccc1)C(=O)N[C@@H](CCCCN)C(=O)N[C@@H](CC(C)C)C(=O)N[C@@H](CCCNC(=N)N)C(=O)N[C@@H](CC(C)C)C(=O)N[C@@H](CC(N)=O)C(=O)N[C@@H](CC(C)C)C(=O)O (H-TEMFKLRLNL-OH) | > 1000 µM | IC50 [6]: 58.2 µM; IC50 [1]: 54.8 µM
19 | CC[C@H](C)[C@H](NC(=O)[C@@H](N)[C@@H](C)O)C(=O)N[C@@H](Cc1ccc(O)cc1)C(=O)NCC(=O)N[C@@H](CCCCN)C(=O)NCC(=O)NCC(=O)N[C@@H](Cc1ccccc1)C(=O)N[C@@H](CCC(N)=O)C(=O)N[C@@H](Cc1ccccc1)C(=O)O (H-TIYGKGGFQF-OH) | 109 µM | –
20 | CC[C@H](C)[C@H](NC(=O)[C@@H]1CCCN1C(=O)[C@@H](N)Cc1ccc(O)cc1)C(=O)N[C@@H](CCC(=O)O)C(=O)N[C@@H](CCCCN)C(=O)N[C@@H](CC(C)C)C(=O)NCC(=O)N[C@@H](Cc1c[nH]cn1)C(=O)N[C@H](C(=O)O)C(C)C (H-YPIEKLGHV-OH) | 0.257 µM | –
21 | CC(C)C[C@H](NC(=O)[C@H](C)NC(=O)[C@H](CC(=O)O)NC(=O)[C@H](Cc1ccccc1)NC(=O)[C@@H](NC(=O)[C@H](CC(N)=O)NC(=O)[C@@H]1CCCN1C(=O)[C@@H]1CCCN1C(=O)[C@@H](N)Cc1ccccc1)[C@@H](C)O)C(=O)O [FPPNTFDAL] (H-FPPNTFDAL-OH) | 2.72 µM | –
22 | CC(C)C[C@H](NC(=O)[C@H](C)NC(=O)[C@H](CO)NC(=O)[C@@H](NC(=O)[C@H](CCCCN)NC(=O)[C@H](CC(=O)O)NC(=O)[C@H](CCCNC(=N)N)NC(=O)[C@H](CS)NC(=O)[C@@H](N)Cc1c[nH]cn1)[C@@H](C)O)C(=O)O [HCRDKTSAL] (H-HCRDKTSAL-OH) | 28.6 µM | –
